Experimental data as given in patent publication US20260232619A1, “TREATMENT OF NEUROLOGICAL DISORDERS WITH ALLICIN AND ANALOGUES THEREOF” (KATHOLIEKE UNIVERSITEIT LEUVEN, priority 2023, published 2026).
“Also recorded” adds a separate entry of the source.

Columns and labels:
[1] = system: scn1lab−/− larvae; experiment: Locomotor activity assessment in zebrafish scn1lab−/− mutant model of Dravet syndrome; type: in vivo, zebrafish (Danio rerio)
Description: (§1) FIG. 2. […] (A) Anti-seizure treatment schedule: 3 dpf scn1lab−/− larvae were exposed to the MTC of allicin or VHC control. 2 days later, abnormal locomotor behavior and epileptiform brain activity of treated larvae was analyzed using an automated tracking device (Noldus) and local field potential recordings, respectively. (B) The normalized cumulative duration of activity (%) is represented as mean±SEM. According to the treatment schedule depicted in panel A, anti-seizure effect of allicin was examined in scnLab−/− larvae at 5 dpf (n=22), and compared to VHC treated scnLab−/− larvae (n=24). VHC treated scn1Lab+/+ larvae (n=24) were included as control. (C) The average number of epileptiform events per 10-minute recording is represented as mean±SEM. Treatment schedule depicted in panel A was followed. Accordingly, electrophysiological effect of allicin was examined in scnLab−/− larvae at 5 dpf (n=15), and compared to VHC treated scnLab−/− larvae (n=15). VHC treated scn1Lab+/+ larvae (n=8) were included as control (D) Early treatment schedule: 1 dpf scn1lab−/− larvae were dechorionated and exposed to the MTC of allicin or VHC control. 2 days later, swimming medium of the larvae was replenished with identical concentrations of allicin or VHC, respectively. At 5 dpf, abnormal locomotor behavior and epileptiform brain activity of treated larvae was analyzed using an automated tracking device (Noldus) and local field potential recordings, respectively. (continued on page 6)(continued from page 5) (E) The normalized cumulative duration of activity (%) is represented as mean±SEM. […] At 5 dpf, abnormal locomotor behavior and epileptiform brain activity of treated larvae was analyzed using an automated tracking device (Noldus) and local field potential recordings, respectively. […]
(§2) The mutant larval fish typically develop signs of epilepsy (hyperlocomotor activity, abnormal brain electrical discharges as assessed by Local Field Potential (LFP) measurements) at 4-5 dpf (days post-fertilization). […]

[2] = system: scn1lab−/− larvae; experiment: Non-invasive local field potential (LFP) recordings in zebrafish scn1lab−/− mutant model of Dravet syndrome; type: in vivo, zebrafish (Danio rerio)
Description: as §1, §2

C=CCS[S@@+]([O-])CC=C (racemic) [allicin, S-(Prop-2-en-1-yl) prop-2-ene-1-sulfinothioate]
abnormal locomotor behavior (hyperlocomotor activity) compared to VHC treated controls ([1]; anti-seizure treatment schedule: allicin at MTC from 3 dpf onwards (after seizure onset), measured at 5 dpf (FIG. 2B)): did not demonstrate significant decreases; also recorded: rescue effect is not present
abnormal hyperactive behavior compared to VHC controls ([1]; early treatment schedule: dechorionated at 1 dpf, exposed to allicin at MTC for 4 days, measured at 5 dpf (FIG. 2E)): highly significant decreases
typical symptoms of epilepsy: hyperlocomotor activity ([1]; exposed during the 0-3 dpf period to non-toxic concentrations, measured at 5 dpf): are not present
epileptiform brain activity compared to VHC treated controls ([2]; anti-seizure treatment schedule: allicin at MTC from 3 dpf onwards (after seizure onset), LFP at 5 dpf (FIG. 2C)): did not demonstrate significant decreases; also recorded: rescue effect is not present
epileptiform events ([2]; early treatment schedule: dechorionated at 1 dpf, exposed to allicin at MTC for 4 days, LFP at 5 dpf (FIG. 2F)): significantly reduced to similar levels as observed in wild-type and heterozygous siblings
typical symptoms of epilepsy: abnormal brain electrical discharges ([2]; exposed during the 0-3 dpf period to non-toxic concentrations, measured at 5 dpf (data not shown)): are not present
